Laboratory results reported in publication PMC5059724, “Purification and characterization of a novel phloretin-2′-O-glycosyltransferase favoring phloridzin biosynthesis” (Scientific Reports, 2016).
Each block holds one compound with its values, some of them ahead of it.

Columns and labels:
MdP2′GT [1] = molecular target: MdP2′GT (Malus domestica, UniProt A0A0X9XIE3); assay: Effects of metal ions and other compounds on purified MdP2′GT activity; type: biochemical, Malus x domestica; design: key to IC50: ND: no effects detected at selected concentrations; Activator: additions increased MdP2′GT activity at selected concentrations; conditions: for Effect of co-solvent on enzyme activity: 20% co-solvent
MdP2′GT [2] = molecular target: T1, MdP2′GT (Malus domestica, UniProt A0A0X9XIE3); assay: Inhibition of phloridzin formation by purified MdP2′GT from 270 uM UDPG and 20 uM phloretin, 50 mM Tris/HCl pH 7.5, 5 mM DTT, 30 °C, 30 min, product quantified by HPLC-DAD.; type: biochemical
T1 construct: gene P2'GT
T1 sequence (A0A0X9XIE3 1-483): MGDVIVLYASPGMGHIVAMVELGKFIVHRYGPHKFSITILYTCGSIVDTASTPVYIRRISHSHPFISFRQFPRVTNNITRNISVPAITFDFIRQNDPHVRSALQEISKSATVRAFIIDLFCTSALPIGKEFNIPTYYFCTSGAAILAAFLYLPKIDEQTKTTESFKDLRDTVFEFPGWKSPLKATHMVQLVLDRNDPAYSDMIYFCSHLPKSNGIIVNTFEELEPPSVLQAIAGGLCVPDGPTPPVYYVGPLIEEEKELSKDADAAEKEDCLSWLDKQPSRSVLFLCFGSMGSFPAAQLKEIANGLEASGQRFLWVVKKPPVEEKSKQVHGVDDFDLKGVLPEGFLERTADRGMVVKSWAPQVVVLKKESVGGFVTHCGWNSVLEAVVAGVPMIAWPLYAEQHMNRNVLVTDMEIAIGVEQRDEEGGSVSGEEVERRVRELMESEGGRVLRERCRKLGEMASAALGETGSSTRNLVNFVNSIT

UGT88F1 = system: T2, UGT88F1; assay: Literature Km for 2′-OH glycosylation of phloretin with the UDPG/phloretin combination, quoted in the comparison table.; type: biochemical; conditions: read-out: Km (μM), reported P2′GTs; cited from earlier work
T2 construct: literature enzyme, MW 59 kDa
From the text: (§1) Table 5 Enzyme characters and Kinetic parameters of MdP2′GT and reported P2′GTs. | Km (μM), reported P2′GTs

UGT71A15 = system: T3, UGT71A15; assay: as above; type: biochemical; conditions: read-out: Km (μM), reported P2′GTs; cited from earlier work
T3 construct: literature enzyme, MW 52 kDa
From the text: as §1

[3] = molecular target: Phloretin-2′-O-glycosyltransferase of Malus x domestica (MdP2′GT) (Malus x domestica); assay: SEC; Sephacryl S-300 column, 5 mg/ml purified MdP2′GT, buffer D (50 mM Tris-HCl pH 7.5, 200 mM NaCl, 5 mM DTT), calibrated with five marker proteins; native protein and protein deglycosylated with PNGase F or Endo H under native conditions; mass confirmed by MALDI-TOF
[4] = addition at 5 mM, compared to a control in which none is added
[5] = concentration of inhibitor required to reduce the original MdP2′GT activity by 50%, read-out: IC50
[6] = addition at 0.5 mM, compared to a control in which none is added
[7] = 0.5 h, pH 7.5, addition at 5 mM, compared to a control in which none is added, read-out: Relative activity
[8] = concentration of inhibitor required to reduce the original MdP2′GT activity by 50%

Compound: C[S+](C)[O-] [Dimethyl sulfoxide]
- Effect of co-solvent on enzyme activity (MdP2′GT [1]): no effects
- Relative activity (MdP2′GT [1]; addition at 704 mM, compared to a control in which none is added): 99.54 ± 1.40%

Compound: [Ca+2].[Cl-].[Cl-] [CaCl2]
- Relative activity (MdP2′GT [1]; [4]): 54.21 ± 1.05%
- Relative activity (MdP2′GT [1]; addition at 5 mM, compared to a control in which none is added, listed as Ca^2+): partially inhibited
- IC50 (MdP2′GT [1]; [5]): 5500 ± 120 µM

Compound: O=C(CCc1ccc(O)c(O)c1)c1c(O)cc(O)cc1O[C@@H]1O[C@H](CO)[C@@H](O)[C@H](O)[C@H]1O [3-hydroxyphloridzin]
- IC50 (MdP2′GT [2]; read-out: IC50/): 2500 ± 200 µM

Compound: [Cl-].[Na+] [NaCl, Sodium chloride]
- Relative activity (MdP2′GT [1]; addition at 500 mM, compared to a control in which none is added): 100 ± 1.00%
- Relative activity (MdP2′GT [1]; addition at 500 mM, compared to a control in which none is added, listed as Sodium chloride): no obvious inhibitory effects

Compound: O=c1ccn([C@@H]2O[C@H](COP(=O)(O)O)[C@@H](O)[C@H]2O)c(=O)[nH]1 [UMP, uridine monophosphate]
- Relative activity (MdP2′GT [1]; [4]): 38.25 ± 1.07%
- IC50 (MdP2′GT [2]; read-out: IC50/): 4000 ± 130 µM

Compound: [Cl-].[Cl-].[Co+2] [CoCl2]
- IC50 (MdP2′GT [1]; read-out: IC50): 50 ± 10 µM

Compound: CO [Methanol]
- Effect of co-solvent on enzyme activity (MdP2′GT [1]): no effects
- Relative activity (MdP2′GT [1]; addition at 1236 mM, compared to a control in which none is added): 99.23 ± 1.41%

Compound: p-hydroxymercuribenzoate
- IC50 (MdP2′GT [1]; [5]): 240 ± 70 µM

Compound: NCCc1ccc(S(=O)(=O)F)cc1 [AEBSF, 4-(2-Aminoethyl) benzenesulfonyl fluoride]
- Relative activity (MdP2′GT [1]; [6]): No obvious effects
- Relative activity (MdP2′GT [1]; addition at 0.5 mM, compared to a control in which none is added, 30 min, 500 µM): 99.51 ± 2.36%

Compound: O=C(CCc1ccc(O)c(O)c1)c1c(O)cc(O)cc1O[C@@H]1O[C@H](CO)[C@@H](O)[C@H](O)[C@H]1O [3-hydroxyphloridzin, 3-hydroxyphloridzin]
- Relative activity (MdP2′GT [1]; [4]): 15.65 ± 0.58%

Compound: O=c1ccn([C@@H]2O[C@H](CO)[C@@H](O)[C@H]2O)c(=O)[nH]1 [Uridine]
- activity at 5000 µM (MdP2′GT [1]; [7]): 98.2 ± 2.12%

Compound: [Cl][Ni][Cl] [NiCl2]
- Relative activity (MdP2′GT [1]; [6]): negligibly affected
- Relative activity (MdP2′GT [1]; [4]): 98.26 ± 2.08%

Compound: O=C(CCc1ccc(O)cc1)c1c(O)cc(O)cc1O [Phloretin, phloretin]
- Km (UGT88F1): 0.62 µM
- Km (UGT71A15): 82 µM

Compound: [Cl][Cu][Cl] [CuCl2]
- Relative activity (MdP2′GT [1]; [4]): 0.00 ± 0.00%
- Relative activity (MdP2′GT [1]; addition at 5 mM, compared to a control in which none is added, listed as Cu^2+): completely inhibited
- IC50 (MdP2′GT [1]; [5]): 10 ± 10 µM

Compound: [Cl][Al]([Cl])[Cl] [AlCl3]
- Relative activity (MdP2′GT [1]; [4]): 67.81 ± 1.03%
- Relative activity (MdP2′GT [1]; addition at 5 mM, compared to a control in which none is added, listed as Al^3+): partially inhibited
- IC50 (MdP2′GT [1]; [5]): 8000 ± 500 µM

Compound: CCN1C(=O)C=CC1=O [N-Ethylmaleimide]
- activity at 1000 µM (MdP2′GT [1]; 0.5 h, pH 7.5, addition at 1 mM, compared to a control in which none is added, read-out: Relative activity): 20.5 ± 1.08%
- Relative activity (MdP2′GT [1]; addition at 1 mM, compared to a control in which none is added): strong inhibition
- IC50 (MdP2′GT [1]; [5]): 280 ± 10 µM

Compound: [Cl-].[K+] [KCl]
- Relative activity (MdP2′GT [1]; [6]): negligibly affected
- Relative activity (MdP2′GT [1]; [4]): 99.58 ± 2.31%

Compound: [Cl-].[Cl-].[Mg+2] [MgCl2]
- Relative activity (MdP2′GT [1]; addition at 2 mM, compared to a control in which none is added): 130.35 ± 3.53%
- Relative activity (MdP2′GT [1]; addition at 2 mM, compared to a control in which none is added, listed as Mg^2+): 130%
- IC50 (MdP2′GT [1]; [8]): Activator

Compound: [Ba+2].[Cl-].[Cl-] [BaCl2]
- Relative activity (MdP2′GT [1]; [6]): negligibly affected
- Relative activity (MdP2′GT [1]; [4]): 99.03 ± 2.54%

Compound: O=C(O)c1cc[c]([Hg+])cc1 [p-hydroxymercuribenzoate, p-hydroxymercuribenzoate (PHMB)]
- IC50 (MdP2′GT [2]): 240 ± 70 µM

Compound: O[C@@H](CS)[C@@H](O)CS (racemic) [Dithiothreitol]
- activity at 5000 µM (MdP2′GT [1]; [7]): 99.2 ± 1.43%
- Relative activity (MdP2′GT [1]; [4]): No obvious effects

The remaining lines, values ahead:

- Relative activity (MdP2′GT [1]; [4]): 99.02 ± 1.47%
- Relative activity (MdP2′GT [1]; addition at 5 mM, compared to a control in which none is added, listed as β-ME): No obvious effects
Compound: OCCS [β-mercaptoethanol]

- IC50 (MdP2′GT [1]; [5]): 6500 ± 230 µM
Compound: [Cl][Fe]([Cl])[Cl] [FeCl3]

- Relative activity (MdP2′GT [1]; [4]): 21.70 ± 1.15%
Compound: O=C(CCc1ccc(O)cc1)c1c(O)cc(O[C@@H]2O[C@H](CO)[C@@H](O)[C@H](O)[C@H]2O)cc1O [Trilobatin]

- IC50 (MdP2′GT [1]; [5]): 2500 ± 100 µM
Compound: O=c1ccn([C@@H]2O[C@H](COP(=O)(O)OP(=O)(O)OP(=O)(O)O)[C@@H](O)[C@H]2O)c(=O)[nH]1 [UTP, uridine triphosphate]

- activity at 686000 µM (MdP2′GT [1]; 0.5 h, pH 7.5, addition at 686 mM (text: 5% glycerol), compared to a control in which none is added, read-out: Relative activity): 98.1 ± 2.15%
- Relative activity (MdP2′GT [1]; addition at 686 mM (text: 5% glycerol), compared to a control in which none is added): No obvious effects
Compound: OCC(O)CO [Glycerol]

- stoichiometry N [3]: 2
Compound: Phloretin-2′-O-glycosyltransferase of Malus x domestica (MdP2′GT) (enzyme)

- activity at 5000 µM (MdP2′GT [1]; [7]): 3.05 ± 0.26%
Compound: O=c1ccn([C@@H]2O[C@H](CO[P@@](=O)(O)O[P@@](=O)(O)OP(=O)(O)O)[C@@H](O)[C@H]2O)c(=O)[nH]1 (stereo in doubt) [UTP, uridine triphosphate]

- Relative activity (MdP2′GT [1]; [4]): 47.41 ± 1.13%
- Relative activity (MdP2′GT [1]; addition at 5 mM, compared to a control in which none is added, listed as Mn^2+): partially inhibited
- IC50 (MdP2′GT [1]; [5]): 4500 ± 110 µM
Compound: O=S(=O)([O-])[O-].[Mn+2] [MnSO4]

- Relative activity (MdP2′GT [1]; [4]): 119.43 ± 3.61%
- IC50 (MdP2′GT [1]; [8]): Activator
Compound: O=S(=O)([O-])[O-].[Fe+2] [FeSO4]

- IC50 (MdP2′GT [2]; read-out: IC50/): 3000 ± 210 µM
Compound: O=C(CCc1ccc(O)cc1)c1c(O)cc(O[C@@H]2O[C@H](CO)[C@@H](O)[C@H](O)[C@H]2O)cc1O [Trilobatin, trilobatin]

- IC50 (MdP2′GT [2]; read-out: IC50/): 100 ± 10 µM
Compound: O=c1ccn([C@@H]2O[C@H](COP(=O)(O)OP(=O)(O)O)[C@@H](O)[C@H]2O)c(=O)[nH]1 [UDP, uridine diphosphate]
